Source: ChEMBL document CHEMBL1268894, “Synthesis and biological evaluation of novel hygromycin A antibacterial agents” (Bioorg Med Chem Lett, 2010)
In brackets after ≈: the same amount, converted by molar mass.

Key:
[1] = Permeability across apical to basolateral side in human Caco-2 cells; type: ADME, cell-based; details: read-out: permeability
[2] = Permeability across basolateral to apical side in human Caco-2 cells; type: ADME, cell-based; details: read-out: permeability
[3] = test system: Staphylococcus aureus; experiment: Antimicrobial activity against Staphylococcus aureus 1095; type: functional
[4] = test system: Staphylococcus aureus; experiment: Antimicrobial activity against Staphylococcus aureus 1146; type: functional
[5] = test system: Streptococcus pneumoniae; experiment: Antimicrobial activity against Streptococcus pneumoniae 1046; type: functional
[6] = test system: Streptococcus pneumoniae; experiment: Antimicrobial activity against Streptococcus pneumoniae 1095; type: functional
[7] = test system: Streptococcus pyogenes; experiment: Antimicrobial activity against Streptococcus pyogenes 2035; type: functional
[8] = test system: Streptococcus pyogenes; experiment: Antimicrobial activity against Streptococcus pyogenes 1079; type: functional
[9] = Oral bioavailability in rat; type: ADME, organism-based; details: in vivo

Structure (SMILES)	Papp A→B [1]	Papp B→A [2]	MIC [3]	MIC [4]	MIC [5]	MIC [6]	MIC [7]	MIC [8]	bioavailability [9]
CCCO[C@@H]1[C@@H](O)[C@H]2OCO[C@H]2[C@H](O)[C@@H]1NC(=O)/C(C)=C/c1cc(F)c(OCCCF)cc1F			> 64 µg/mL	> 64 µg/mL	64 µg/mL (≈ 131 µM)	64 µg/mL (≈ 131 µM)	64 µg/mL (≈ 131 µM)	32 µg/mL (≈ 65.4 µM)	
C/C(=C\c1cc(F)c(OCCCF)cc1F)C(=O)N[C@H]1[C@@H](O)[C@@H]2OCO[C@@H]2[C@H](O)[C@H]1OCCCF			16 µg/mL (≈ 31.5 µM)	8 µg/mL (≈ 15.8 µM)	8 µg/mL (≈ 15.8 µM)	8 µg/mL (≈ 15.8 µM)	8 µg/mL (≈ 15.8 µM)	2 µg/mL (≈ 3.94 µM)	
C/C(=C\c1cc(F)c(OCCCF)cc1F)C(=O)N[C@H]1[C@@H](O)[C@@H]2OCO[C@@H]2[C@H](O)[C@H]1OCC1CC1			> 64 µg/mL	> 64 µg/mL	64 µg/mL (≈ 128 µM)	> 64 µg/mL	> 64 µg/mL	32 µg/mL (≈ 63.8 µM)	
C/C(=C\c1cc(F)c(OCCCF)cc1F)C(=O)N[C@@H]1[C@H](O)[C@@H](O)[C@H]2OCO[C@H]2[C@@H]1OCc1ccccc1			16 µg/mL (≈ 29.8 µM)	16 µg/mL (≈ 29.8 µM)	4 µg/mL (≈ 7.44 µM)	8 µg/mL (≈ 14.9 µM)	16 µg/mL (≈ 29.8 µM)	2 µg/mL (≈ 3.72 µM)	
C/C(=C\c1cc(F)c(OCCCF)cc1F)C(=O)N[C@H]1[C@@H](O)[C@@H]2OCO[C@@H]2[C@H](O)[C@H]1OCc1ccccc1	10 ×10⁻⁶ cm/s	14 ×10⁻⁶ cm/s	> 64 µg/mL	64 µg/mL (≈ 119 µM)	32 µg/mL (≈ 59.5 µM)	32 µg/mL (≈ 59.5 µM)	64 µg/mL (≈ 119 µM)	32 µg/mL (≈ 59.5 µM)	
COCCCO[C@@H]1[C@H](NC(=O)/C(C)=C/c2cc(F)c(OCCCF)cc2F)[C@H](O)[C@@H](O)[C@H]2OCO[C@H]21			16 µg/mL (≈ 30.8 µM)	16 µg/mL (≈ 30.8 µM)	4 µg/mL (≈ 7.7 µM)	4 µg/mL (≈ 7.7 µM)	2 µg/mL (≈ 3.85 µM)	2 µg/mL (≈ 3.85 µM)	90%
CO[C@@H]1[C@@H](O)[C@@H](NC(=O)/C(C)=C/c2cc(F)c(OCCCF)cc2F)[C@@H](O)[C@@H]2OCO[C@H]12			> 100 µg/mL	100 µg/mL (≈ 217 µM)	25 µg/mL (≈ 54.2 µM)	25 µg/mL (≈ 54.2 µM)	100 µg/mL (≈ 217 µM)	50 µg/mL (≈ 108 µM)	
C/C(=C\c1cc(F)c(OCCCF)cc1F)C(=O)N[C@H]1[C@@H](O)[C@@H]2OCO[C@@H]2C[C@H]1O			64 µg/mL (≈ 148 µM)	32 µg/mL (≈ 74.2 µM)	4 µg/mL (≈ 9.27 µM)	8 µg/mL (≈ 18.5 µM)	16 µg/mL (≈ 37.1 µM)	8 µg/mL (≈ 18.5 µM)	
C/C(=C\c1cc(F)c(OCCCF)cc1F)C(=O)N[C@H]1C[C@@H]2OCO[C@@H]2[C@H](O)[C@H]1O			16 µg/mL (≈ 37.1 µM)	8 µg/mL (≈ 18.5 µM)		8 µg/mL (≈ 18.5 µM)	4 µg/mL (≈ 9.27 µM)	8 µg/mL (≈ 18.5 µM)	
C=CCOc1ccc(/C=C(\C)C(=O)N[C@@H]2[C@H](O)[C@@H](O)[C@H]3OCO[C@H]3[C@@H]2O)cc1O			50 µg/mL (≈ 123 µM)	50 µg/mL (≈ 123 µM)	1.56 µg/mL (≈ 3.83 µM)	1.56 µg/mL (≈ 3.83 µM)	1.56 µg/mL (≈ 3.83 µM)	0.8 µg/mL (≈ 1.96 µM)	
CC(=O)[C@H]1O[C@@H](Oc2ccc(/C=C(\C)C(=O)N[C@@H]3[C@H](O)[C@@H](O)[C@H]4OCO[C@H]4[C@@H]3O)cc2O)[C@@H](O)[C@@H]1O [HYGROMYCIN A]			50 µg/mL (≈ 97.8 µM)	25 µg/mL (≈ 48.9 µM)	12.5 µg/mL (≈ 24.4 µM)	12.5 µg/mL (≈ 24.4 µM)	6.25 µg/mL (≈ 12.2 µM)	6.25 µg/mL (≈ 12.2 µM)	

Stronger by MIC [3], values ahead:

Papp A→B [1]	Papp B→A [2]	MIC [3]	MIC [4]	MIC [5]	MIC [6]	MIC [7]	MIC [8]	bioavailability [9]	Structure (SMILES)
		8 µg/mL (≈ 16.8 µM)	8 µg/mL (≈ 16.8 µM)	2 µg/mL (≈ 4.21 µM)	8 µg/mL (≈ 16.8 µM)	1 µg/mL (≈ 2.1 µM)	2 µg/mL (≈ 4.21 µM)		CCO[C@@H]1[C@@H](O)[C@H]2OCO[C@H]2[C@H](O)[C@@H]1NC(=O)/C(C)=C/c1cc(F)c(OCCCF)cc1F
		8 µg/mL (≈ 16.8 µM)	8 µg/mL (≈ 16.8 µM)	1 µg/mL (≈ 2.1 µM)	4 µg/mL (≈ 8.41 µM)	4 µg/mL (≈ 8.41 µM)	1 µg/mL (≈ 2.1 µM)		CCO[C@@H]1[C@H](NC(=O)/C(C)=C/c2cc(F)c(OCCCF)cc2F)[C@H](O)[C@@H](O)[C@H]2OCO[C@H]21
		6.25 µg/mL (≈ 13.5 µM)	3.13 µg/mL (≈ 6.78 µM)	0.78 µg/mL (≈ 1.69 µM)	1.56 µg/mL (≈ 3.38 µM)	1.56 µg/mL (≈ 3.38 µM)	1.56 µg/mL (≈ 3.38 µM)		CO[C@@H]1[C@H](NC(=O)/C(C)=C/c2cc(F)c(OCCCF)cc2F)[C@H](O)[C@@H](O)[C@H]2OCO[C@H]21
		4 µg/mL (≈ 8.17 µM)	8 µg/mL (≈ 16.3 µM)	1 µg/mL (≈ 2.04 µM)	2 µg/mL (≈ 4.09 µM)	4 µg/mL (≈ 8.17 µM)	1 µg/mL (≈ 2.04 µM)		CCCO[C@@H]1[C@H](NC(=O)/C(C)=C/c2cc(F)c(OCCCF)cc2F)[C@H](O)[C@@H](O)[C@H]2OCO[C@H]21
		4 µg/mL (≈ 7.98 µM)	4 µg/mL (≈ 7.98 µM)	0.5 µg/mL (≈ 0.997 µM)	1 µg/mL (≈ 1.99 µM)	1 µg/mL (≈ 1.99 µM)	0.5 µg/mL (≈ 0.997 µM)		C/C(=C\c1cc(F)c(OCCCF)cc1F)C(=O)N[C@@H]1[C@H](O)[C@@H](O)[C@H]2OCO[C@H]2[C@@H]1OCC1CC1
		4 µg/mL (≈ 7.53 µM)	2 µg/mL (≈ 3.76 µM)	0.5 µg/mL (≈ 0.941 µM)	1 µg/mL (≈ 1.88 µM)	1 µg/mL (≈ 1.88 µM)	0.25 µg/mL (≈ 0.47 µM)		C/C(=C\c1cc(F)c(OCCCF)cc1F)C(=O)N[C@@H]1[C@H](O)[C@@H](O)[C@H]2OCO[C@H]2[C@@H]1OCC1CCOC1 (stereo partly drawn)
0.9 ×10⁻⁶ cm/s	5.9 ×10⁻⁶ cm/s	4 µg/mL (≈ 8.94 µM)	4 µg/mL (≈ 8.94 µM)	0.5 µg/mL (≈ 1.12 µM)	0.4 µg/mL (≈ 0.894 µM)	2 µg/mL (≈ 4.47 µM)	< 0.2 µg/mL	20%	C/C(=C\c1cc(F)c(OCCCF)cc1F)C(=O)N[C@@H]1[C@H](O)[C@@H](O)[C@H]2OCO[C@H]2[C@@H]1O
		2 µg/mL (≈ 3.94 µM)	1 µg/mL (≈ 1.97 µM)	0.25 µg/mL (≈ 0.493 µM)	0.25 µg/mL (≈ 0.493 µM)	0.5 µg/mL (≈ 0.985 µM)	0.125 µg/mL (≈ 0.246 µM)		C/C(=C\c1cc(F)c(OCCCF)cc1F)C(=O)N[C@@H]1[C@H](O)[C@@H](O)[C@H]2OCO[C@H]2[C@@H]1OCCCF
		2 µg/mL (≈ 4.11 µM)	1 µg/mL (≈ 2.06 µM)	0.5 µg/mL (≈ 1.03 µM)	1 µg/mL (≈ 2.06 µM)	0.5 µg/mL (≈ 1.03 µM)	0.25 µg/mL (≈ 0.514 µM)		C/C(=C\c1cc(F)c(OCCCF)cc1F)C(=O)N[C@@H]1[C@H](O)[C@@H](O)[C@H]2OCO[C@H]2[C@@H]1OCC#N
2.5 ×10⁻⁶ cm/s	22 ×10⁻⁶ cm/s	1 µg/mL (≈ 1.78 µM)	1 µg/mL (≈ 1.78 µM)	< 0.0625 µg/mL	< 0.0625 µg/mL	0.25 µg/mL (≈ 0.444 µM)	< 0.0625 µg/mL		C/C(=C\c1cc(F)c(OCCCF)cc1F)C(=O)N[C@@H]1[C@H](O)[C@@H](O)[C@H]2OCO[C@H]2[C@@H]1OCc1ccccc1C#N
